The source of these data is patent US8445491B2, “Wnt protein signalling inhibitors” (The Board of Regents of the University of Texas System, priority 2008, dated 2013).

Each structure is given as a SMILES string.

In the first assay the test system is Wnt/β-catenin pathway. Description: luciferase-based reporter assay (SuperTopFlash) measuring Wnt/β-catenin-dependent transcriptional response, L-Wnt-STF cells. In kind it is cell-based. Particulars: Mus musculus; Table 1; luciferase reporter of Wnt/β-catenin-dependent transcriptional response. On the procedure:
Tables 1 and 2 provides further examples of such compounds, as well as their activities as determined by a luciferase-based reporter assay that measures Wnt/β-catenin-dependent transcriptional response.
For the “primary screen” and “dose-dependent test,” ˜5,000 L-Wnt-STF cells were seeded into each well of a white opaque 384 well plate and individual compounds from the UTSW chemical library added 24 hrs later to each well at a final concentration of 2.5 μM (primary screen) or otherwise indicated concentrations. Luciferase activities were measured 24 hrs later. To identify FL inhibitors and compounds that blocked protein secretion, L-cells were transiently transfected with CMV-FL and CMV-GL constructs and immediately incubated with compounds. Culture medium and cell lysates were analyzed for GL and FL activities, respectively, after 24 hrs. For the “exogenous Wnt test,” Wnt3A-containing conditioned medium, prepared following the protocol provided ATCC, was applied to HEK293 cells transiently transfected with STF and control reporters. For Hedgehog and Notch tests, NIH-3T3 cells or L-cells, respectively, were transiently transfected with indicated reporter constructs and immediately incubated with compounds. Luciferase activities were measured 24 hrs later. The “Wnt secretion test” was performed in L-cells transiently transfected with the Wnt-GL expression construct and immediately incubated with compounds. Culture medium and cellular lysate were analyzed 48 hrs later for GL activity. Assays used to calculate IC50's for compounds were performed as before in L-Wnt-STF cells.
A brief overview of the screen is as follows: mouse L-cells that stably harbor a well-characterized Wnt/β-catenin pathway-responsive firefly luciferase (FL) reporter plasmid (SuperTopFlash or STF), a control reporter, and an expression construct encoding the Wnt protein, Wnt3A, were exposed to individual compounds for two days prior to measurement of reporter activities. Chemicals that altered FL but not control reporter activity were selected for further testing (FIG. 1; FIG. 8). The screening strategy allows for identification of compounds that either potentially increase or decrease Wnt/β-catenin pathway activity.
For the compound `Cc1ccc2cccnc2c1NC(=O)c1ccc(N2C(=O)[C@@H]3[C@@H]4C=CC(C4)[C@@H]3C2=O)cc1` [Compound 3], it took 0.8 µM to reach a half-maximal effect (EC50). For `O=C(NC1CCCc2cccnc21)c1ccc(N2C(=O)[C@@H]3[C@@H]4C=CC(C4)[C@@H]3C2=O)cc1` (stereo partly shown) [Compound 4], the midpoint of the response, the EC50, lay at 10 µM. `COc1ccccc1NC(=O)c1ccc(N2C(=O)[C@@H]3[C@@H]4C=CC(C4)[C@@H]3C2=O)cc1` [Compound 5] returned a concentration giving a half-maximal response (EC50) of 1 µM. Same read-out and setting: the figure for `O=C(Nc1ccccc1)c1ccc(N2C(=O)[C@@H]3[C@@H]4C=CC(C4)[C@@H]3C2=O)cc1` [Compound 6] is more than 25 µM. In the case of `O=C(Nc1ccccc1F)c1ccc(N2C(=O)[C@@H]3[C@@H]4C=CC(C4)[C@@H]3C2=O)cc1` [Compound 7], the EC50 is more than 25 µM. Consider `O=C(Nc1ccccc1Cl)c1ccc(N2C(=O)[C@@H]3[C@@H]4C=CC(C4)[C@@H]3C2=O)cc1` [Compound 8], for which the EC50 is more than 25 µM.

`O=C(Nc1ccccc1Br)c1ccc(N2C(=O)[C@@H]3[C@@H]4C=CC(C4)[C@@H]3C2=O)cc1` [Compound 9] gave an EC50 of more than 25 µM.

As to `O=C(Nc1cccc(F)c1)c1ccc(N2C(=O)[C@@H]3[C@@H]4C=CC(C4)[C@@H]3C2=O)cc1` [Compound 10], the EC50 is more than 25 µM. Take `O=C(Nc1cccc(Cl)c1)c1ccc(N2C(=O)[C@@H]3[C@@H]4C=CC(C4)[C@@H]3C2=O)cc1` [Compound 11]: the EC50 is more than 25 µM.

Take `O=C(Nc1cccc(Br)c1)c1ccc(N2C(=O)[C@@H]3[C@@H]4C=CC(C4)[C@@H]3C2=O)cc1` [Compound 12]: the EC50 is 9 µM.

As to `O=C(Nc1ccc(F)cc1)c1ccc(N2C(=O)[C@@H]3[C@@H]4C=CC(C4)[C@@H]3C2=O)cc1` [Compound 13], the midpoint of the response, the EC50, lay at 4 µM. Turning to `O=C(Nc1ccc(Cl)cc1)c1ccc(N2C(=O)[C@@H]3[C@@H]4C=CC(C4)[C@@H]3C2=O)cc1` [Compound 14], the 50% effective concentration (EC50) is 3 µM. With `O=C(Nc1ccc(Br)cc1)c1ccc(N2C(=O)[C@@H]3[C@@H]4C=CC(C4)[C@@H]3C2=O)cc1` [Compound 15], the concentration for a half-maximal effect (EC50) turned out to be 1 µM. `O=C(Nc1cccc(F)c1F)c1ccc(N2C(=O)[C@@H]3[C@@H]4C=CC(C4)[C@@H]3C2=O)cc1` [Compound 16] showed a half-maximal effective concentration (EC50) of more than 25 µM. For `O=C(Nc1ccc(F)cc1F)c1ccc(N2C(=O)[C@@H]3[C@@H]4C=CC(C4)[C@@H]3C2=O)cc1` [Compound 17], the EC50 is 9 µM. Turning to `O=C(Nc1ccc(Cl)cc1Cl)c1ccc(N2C(=O)[C@@H]3[C@@H]4C=CC(C4)[C@@H]3C2=O)cc1` [Compound 18], it took 10 µM to reach a half-maximal effect (EC50). `O=C(Nc1ccc(Br)cc1Br)c1ccc(N2C(=O)[C@@H]3[C@@H]4C=CC(C4)[C@@H]3C2=O)cc1` [Compound 19] registered a half-maximal effective concentration (EC50) of more than 25 µM.

In the case of `O=C(Nc1cc(F)ccc1F)c1ccc(N2C(=O)[C@@H]3[C@@H]4C=CC(C4)[C@@H]3C2=O)cc1` [Compound 20], the EC50 was more than 25 µM. In turn, `O=C(Nc1c(F)cccc1F)c1ccc(N2C(=O)[C@@H]3[C@@H]4C=CC(C4)[C@@H]3C2=O)cc1` [Compound 21] yielded an EC50 of more than 25 µM. Still for that read-out and setting: the figure for `O=C(Nc1ccc(F)c(F)c1)c1ccc(N2C(=O)[C@@H]3[C@@H]4C=CC(C4)[C@@H]3C2=O)cc1` [Compound 22] is 3 µM. In turn, `O=C(Nc1ccc(Cl)c(Cl)c1)c1ccc(N2C(=O)[C@@H]3[C@@H]4C=CC(C4)[C@@H]3C2=O)cc1` [Compound 23] yielded an EC50 of 5 µM.

As for `O=C(Nc1ccc(Br)c(Br)c1)c1ccc(N2C(=O)[C@@H]3[C@@H]4C=CC(C4)[C@@H]3C2=O)cc1` [Compound 24], it took 10 µM to reach a half-maximal effect (EC50).

The compound `O=C(Nc1cc(F)cc(F)c1)c1ccc(N2C(=O)[C@@H]3[C@@H]4C=CC(C4)[C@@H]3C2=O)cc1` [Compound 25] yielded an EC50 of more than 25 µM. The same measure, in the same setting: in the case of `O=C(Nc1ccccc1C(F)(F)F)c1ccc(N2C(=O)[C@@H]3[C@@H]4C=CC(C4)[C@@H]3C2=O)cc1` [Compound 26] it was more than 25 µM; in that of `O=C(Nc1cccc(C(F)(F)F)c1)c1ccc(N2C(=O)[C@@H]3[C@@H]4C=CC(C4)[C@@H]3C2=O)cc1` [Compound 27], 20 µM; in that of `O=C(Nc1ccc(C(F)(F)F)cc1)c1ccc(N2C(=O)[C@@H]3[C@@H]4C=CC(C4)[C@@H]3C2=O)cc1` [Compound 28], more than 25 µM. `O=C(NCc1ccccc1)c1ccc(N2C(=O)[C@@H]3[C@@H]4C=CC(C4)[C@@H]3C2=O)cc1` [Compound 29] yielded an EC50 of 20 µM. For `O=C(NCc1ccccn1)c1ccc(N2C(=O)[C@@H]3[C@@H]4C=CC(C4)[C@@H]3C2=O)cc1` [Compound 30], the EC50 is more than 25 µM. With `O=C(NCc1cccnc1)c1ccc(N2C(=O)[C@@H]3[C@@H]4C=CC(C4)[C@@H]3C2=O)cc1` [Compound 31], the EC50 is more than 25 µM. `O=C(NCc1ccncc1)c1ccc(N2C(=O)[C@@H]3[C@@H]4C=CC(C4)[C@@H]3C2=O)cc1` [Compound 32] returned an EC50 of 10 µM. As for `O=C(NC1CCCCC1)c1ccc(N2C(=O)[C@@H]3[C@@H]4C=CC(C4)[C@@H]3C2=O)cc1` [Compound 35], the 50% effective concentration (EC50) was more than 25 µM.

The same assay, now with this note: Mus musculus; Table 2 (50-52, IWR-8 to IWR-14).
`CN(C(=O)c1ccc(N2C(=O)[C@@H]3[C@@H]4C=CC(C4)[C@@H]3C2=O)cc1)c1cccc2cccnc12` [Compound 50] returned an EC50 of more than 25 µM.

`O=C(Nc1cccc2cccnc12)c1ccc(N2C(=O)[C@@H]3[C@H]4C=CC(C4)[C@@H]3C2=O)cc1` [Compound 51] showed an EC50 of 5 µM.

As for `O=C(Nc1cccc2cccnc12)c1ccc(N2C(=O)[C@@H]3[C@@H]4CCC(C4)[C@@H]3C2=O)cc1` [Compound 52], a half-maximal effect (EC50) was put at 0.2 µM. `O=C1[C@@H]2[C@@H]3C=CC(C3)[C@@H]2C(=O)N1c1ccc(S(=O)(=O)Nc2cccc3cccnc23)cc1` [IWR-8]: the half-maximal effective concentration (EC50) was more than 25 µM. `O=C1[C@@H]2[C@@H]3C=CC(C3)[C@@H]2C(=O)N1c1ccc(S(=O)(=O)Nc2ccccc2Br)cc1` [IWR-9] returned a half-maximal effective concentration (EC50) of more than 25 µM. Compound `O=C1[C@@H]2[C@@H]3C=CC(C3)[C@@H]2C(=O)N1c1ccc(S(=O)(=O)Nc2cccc(Br)c2)cc1` [IWR-10] gave an EC50 of 2 µM. In turn, `O=C1[C@@H]2[C@@H]3C=CC(C3)[C@@H]2C(=O)N1c1ccc(S(=O)(=O)Nc2ccc(Br)cc2)cc1` [IWR-11] displayed an EC50 of 3 µM.

The compound `COc1ccccc1NS(=O)(=O)c1ccc(N2C(=O)[C@@H]3[C@@H]4C=CC(C4)[C@@H]3C2=O)cc1` [IWR-12] displayed a 50% effective concentration (EC50) of 10 µM. The compound `COc1cccc(NS(=O)(=O)c2ccc(N3C(=O)[C@@H]4[C@@H]5C=CC(C5)[C@@H]4C3=O)cc2)c1` [IWR-13] yielded a concentration for a half-maximal effect (EC50) of 6 µM. The compound `COc1ccc(NS(=O)(=O)c2ccc(N3C(=O)[C@@H]4[C@@H]5C=CC(C5)[C@@H]4C3=O)cc2)cc1` [IWR-14] displayed a concentration giving a half-maximal response (EC50) of 10 µM.

Another assay relates to caudal fin regeneration in zebrafish. Put plainly: caudal fin regeneration assay in zebrafish. It is filed as in vivo. The conditions noted are these: zebrafish, FIG. 25, concentration not given. On the procedure:
FIG. 25. […] Arrows indicate the points of resection.
6 month-old zebrafish were incubated 8 or 14 days at 28.5° C. in aquarium water supplemented with 10 μM IWR or in 0.1% DMSO as a control. Fish were fed standard diet, and solutions were changed daily. At the end of the exposure, zebrafish were incubated in 1 mM BrdU in aquarium water for 2 hrs at room temperature, then washed several times in aquarium water, anesthetized with 0.1% Tricaine, and fixed in 4% paraformaldehyde for 48 hrs at 4° C. The intestine was dissected out, dehydrated, paraffin embedded and sectioned at […] intervals. Sections were stained with Hematoxylin and Eosin or processed for BrdU immunohistochemistry as described (Shepard et al., 2005). Sections from 8 animals each from IWR and DMSO groups were independently scored by four blinded observers. The total number of intestinal folds and total number of BrdU-positive nuclei in the mid and distal sections of the intestine were counted from each section. For caudal fin regeneration assays, zebrafish, 3-6 months of age, were anaesthetized in 0.2% Tricaine and half of the fin was resected using a razor blade to remove Amputees were reared at 31° C. in tanks containing either 300 ml of water with DMSO or IWR (10 μM). Water and compounds were replenished daily for a total assay period of 4 days.
For `O=C(Nc1ccc(F)cc1)c1ccc(N2C(=O)[C@@H]3[C@@H]4C=CC(C4)[C@@H]3C2=O)cc1` [Compound 13], the “inhibition of fin regeneration” value was “partial inhibition”. With `O=C(Nc1ccc(F)cc1F)c1ccc(N2C(=O)[C@@H]3[C@@H]4C=CC(C4)[C@@H]3C2=O)cc1` [Compound 17], the “inhibition of fin regeneration” value is on record as “only retarded the growth of the tail fin”.
